# According to ChEMBL document CHEMBL1148347, “Identification of non-phosphate-containing small molecular weight inhibitors of the tyrosine kinase p56 Lck SH2 domain via in silico screening against the pY + 3 binding site” (J Med Chem, 2004):
# The source made the active and inactive calls. The rule behind the calls is not given here.
# Organism: Mus musculus
# Test: Inhibition of [3H]-thymidine incorporation into murine mixed lymphocyte culture at 100 uM (Significant anti-proliferative activity)
# Assay type: functional
row,SMILES,inhibition
1,COc1ccc([N+](=O)[O-])cc1CSc1nnc(N)s1,Active
2,O=C(O)c1cccc(/N=C2\C(Cl)=C(O)OC2OC(=O)c2ccccc2)c1 (configuration not stated),Active
3,O=C(O)c1ccccc1SCc1cc(O)nc(O)n1,Active
4,O=C(NCc1cccs1)c1cccnc1SCc1cccc(Br)c1,Active
5,COc1ccc(OC)c(NC(=O)CCNC(=O)Cn2cnc3ccccc3c2=O)c1,Active
6,Cc1ccc(NC(=O)CN2C(=O)S/C(=C\c3ccc(-c4cc(C(=O)O)ccc4C)o3)C2=O)cc1,Active
7,Cc1ccc(NC(=O)c2cccc(NC(=O)c3ccccc3C(=O)O)c2)cc1C,Active
8,Cc1ccc(C(=O)O)cc1NC(=O)CCC(=O)O,Active
9,COc1ccc(-n2c(SCC(=O)Nc3ccccc3OC)nc3nnc(C)c-3c2N)cc1,Active
10,O=C(O)CSc1cccnc1Sc1ccc(Cl)cc1,Active
11,O=C(O)CC1SC(N/N=C2/CCCc3ccccc32)=NC1=O (configuration not stated),Active

# Target: Tyrosine-protein kinase Lck (Homo sapiens, UniProt P06239)
# Sequence (P06239 whole entry, the tested form may be a part): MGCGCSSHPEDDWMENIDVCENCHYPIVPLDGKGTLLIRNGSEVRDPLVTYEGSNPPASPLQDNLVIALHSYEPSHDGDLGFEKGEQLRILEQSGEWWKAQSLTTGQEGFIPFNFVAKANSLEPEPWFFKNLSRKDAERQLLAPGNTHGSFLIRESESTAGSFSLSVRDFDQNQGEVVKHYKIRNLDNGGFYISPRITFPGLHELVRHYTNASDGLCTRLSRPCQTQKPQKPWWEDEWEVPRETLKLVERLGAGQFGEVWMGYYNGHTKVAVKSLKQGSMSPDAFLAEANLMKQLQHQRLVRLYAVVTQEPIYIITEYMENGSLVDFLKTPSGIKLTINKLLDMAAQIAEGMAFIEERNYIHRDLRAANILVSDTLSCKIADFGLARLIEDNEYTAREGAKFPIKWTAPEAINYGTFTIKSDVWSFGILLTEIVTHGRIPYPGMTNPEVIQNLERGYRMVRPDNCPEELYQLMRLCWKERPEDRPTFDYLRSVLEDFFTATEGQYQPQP
# Test: Dissociation constant for p56 Lck tyrosine kinase SH2 domain by fluorescence titration
row,Kd [µM],SMILES
1,6,Cc1ccc(NC(=O)CN2C(=O)S/C(=C\c3ccc(-c4cc(C(=O)O)ccc4C)o3)C2=O)cc1
